Measurements published in patent publication US4068070A, “α-Cyanoamine compounds and a process for producing the same” (Fuji Chemical Industry Co., Ltd., priority 1974, dated 1978).
Structures can show the parent of a compound that is named as a salt.

What was measured:
[1] = test system: arterial mean blood pressure; assay: Effects on arterial mean blood pressure; assay type: in vivo, mongrel adult dogs
Summary of the method: (§1)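 Open-chest, pentobarbital-anesthetized mongrel dogs (male and female, about 10 kg) received compounds intravenously via the brachial vein; vehicles were 0.2% CMC suspension, HCl solution (pH 6) or physiological saline. Mean arterial pressure came from a carotid-aortic cannula transducer, aortic flow from an electromagnetic flowmeter at the aortic root.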

aortic blood flow = assay: Effects on aortic blood flow; assay type: in vivo, mongrel adult dogs
Summary of the method: as §1

coronary sinus out flow = assay: Effects on coronary sinus out flow; assay type: in vivo, mongrel adult dogs
Summary of the method: (§2)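 Dog, mongrel, ~10 kg, thoracotomized, pentobarbital anesthesia. Dosing i.v. (brachial), vehicle CMC 0.2%, HCl pH 6 or saline. Coronary sinus outflow by electromagnetic flowmeter, coronary sinus pO2 by macro electrode, both via Morawitz cannulation.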

[2] = test system: coronary sinus oxygen tension; assay: Effects on coronary sinus oxygen tension; assay type: in vivo, mongrel adult dogs
Summary of the method: as §2

heart rate = assay: Effects on heart rate; assay type: in vivo, mongrel adult dogs
Summary of the method: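 Adult mongrel dogs of both sexes were anesthetized with pentobarbital and thoracotomized. Test agents, suspended or dissolved in 0.2% CMC, pH 6 HCl solution or saline, were injected intravenously into the brachial vein. Hemodynamic and coronary sinus parameters were then recorded.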

coronary blood flow = conditions: marketed antianginal drug; cited from earlier work

COc1ccc(CN2CCNCC2)c(OC)c1OC [Vastarel F, 2,3,4-trimethoxybenzylpiperazine dihydrochloride, reference compound]
+3.0%: Changes(%) of basal values, coronary sinus out flow (coronary sinus out flow; 2.0 mg/kg i.v., 5 min) | Changes(%) of basal values, coronary sinus oxygen tension ([2]; 0.2 mg/kg i.v., imm.) | Changes(%) of basal values, coronary sinus oxygen tension ([2]; 2.0 mg/kg i.v., 20 min) | Changes(%) of basal values, coronary sinus oxygen tension ([2]; 2.0 mg/kg i.v., imm.)
-3.0%: Changes (%) of basal values, arterial mean blood pressure ([1]; 0.2 mg/kg i.v., imm.) | Changes(%) of basal values, coronary sinus out flow (coronary sinus out flow; 2.0 mg/kg i.v., 1 min)
-13.0%: Changes(%) of basal values, coronary sinus out flow (coronary sinus out flow; 2.0 mg/kg i.v., imm.)
+1.0%: Changes(%) of basal values, coronary sinus out flow (coronary sinus out flow; 0.2 mg/kg i.v., 1 min) | Changes(%) of basal values, coronary sinus oxygen tension ([2]; 0.2 mg/kg i.v., 1 min) | Changes(%) of basal values, coronary sinus oxygen tension ([2]; 0.6 mg/kg i.v., 5 min)
-55.0%: Changes (%) of basal values, arterial mean blood pressure ([1]; 2.0 mg/kg i.v., imm.)
+5.5%: Changes(%) of basal values, coronary sinus oxygen tension ([2]; 0.6 mg/kg i.v., 1 min) | Changes(%) of basal values, heart rate (heart rate; 2.0 mg/kg i.v., imm.)
0%: Changes (%) of basal values, arterial mean blood pressure ([1]; 0.2 mg/kg i.v., 20 min) | Changes (%) of basal values, arterial mean blood pressure ([1]; 0.2 mg/kg i.v., 30 min) | Changes (%) of basal values, arterial mean blood pressure ([1]; 0.6 mg/kg i.v., 20 min) | Changes (%) of basal values, arterial mean blood pressure ([1]; 0.6 mg/kg i.v., 30 min) | Changes (%) of basal values, aortic blood flow (aortic blood flow; 0.2 mg/kg i.v., 1 min) | Changes (%) of basal values, aortic blood flow (aortic blood flow; 0.2 mg/kg i.v., 5 min) | Changes (%) of basal values, aortic blood flow (aortic blood flow; 0.2 mg/kg i.v., 10 min) | Changes (%) of basal values, aortic blood flow (aortic blood flow; 0.2 mg/kg i.v., 20 min) | Changes (%) of basal values, aortic blood flow (aortic blood flow; 0.2 mg/kg i.v., 30 min) | Changes (%) of basal values, aortic blood flow (aortic blood flow; 0.2 mg/kg i.v., imm.) | Changes (%) of basal values, aortic blood flow (aortic blood flow; 0.6 mg/kg i.v., 5 min) | Changes (%) of basal values, aortic blood flow (aortic blood flow; 0.6 mg/kg i.v., 30 min) | Changes (%) of basal values, aortic blood flow (aortic blood flow; 2.0 mg/kg i.v., 1 min) | Changes(%) of basal values, coronary sinus out flow (coronary sinus out flow; 0.2 mg/kg i.v., 5 min) | Changes(%) of basal values, coronary sinus out flow (coronary sinus out flow; 0.2 mg/kg i.v., 10 min) | Changes(%) of basal values, coronary sinus out flow (coronary sinus out flow; 0.2 mg/kg i.v., 20 min) | Changes(%) of basal values, coronary sinus out flow (coronary sinus out flow; 0.2 mg/kg i.v., 30 min) | Changes(%) of basal values, coronary sinus out flow (coronary sinus out flow; 0.2 mg/kg i.v., 40 min) | Changes(%) of basal values, coronary sinus out flow (coronary sinus out flow; 0.6 mg/kg i.v., 10 min) | Changes(%) of basal values, coronary sinus out flow (coronary sinus out flow; 0.6 mg/kg i.v., 20 min) | Changes(%) of basal values, coronary sinus out flow (coronary sinus out flow; 0.6 mg/kg i.v., 30 min) | Changes(%) of basal values, coronary sinus out flow (coronary sinus out flow; 0.6 mg/kg i.v., 40 min) | Changes(%) of basal values, coronary sinus out flow (coronary sinus out flow; 2.0 mg/kg i.v., 30 min) | Changes(%) of basal values, coronary sinus oxygen tension ([2]; 0.2 mg/kg i.v., 5 min) | Changes(%) of basal values, coronary sinus oxygen tension ([2]; 0.2 mg/kg i.v., 10 min) | Changes(%) of basal values, coronary sinus oxygen tension ([2]; 0.2 mg/kg i.v., 20 min) | Changes(%) of basal values, coronary sinus oxygen tension ([2]; 0.2 mg/kg i.v., 30 min) | Changes(%) of basal values, coronary sinus oxygen tension ([2]; 0.6 mg/kg i.v., 10 min) | Changes(%) of basal values, coronary sinus oxygen tension ([2]; 0.6 mg/kg i.v., 20 min) | Changes(%) of basal values, coronary sinus oxygen tension ([2]; 0.6 mg/kg i.v., 30 min) | Changes(%) of basal values, coronary sinus oxygen tension ([2]; 2.0 mg/kg i.v., 30 min) | Changes(%) of basal values, heart rate (heart rate; 0.2 mg/kg i.v., 1 min) | Changes(%) of basal values, heart rate (heart rate; 0.2 mg/kg i.v., 20 min) | Changes(%) of basal values, heart rate (heart rate; 0.2 mg/kg i.v., 30 min) | Changes(%) of basal values, heart rate (heart rate; 0.6 mg/kg i.v., 10 min) | Changes(%) of basal values, heart rate (heart rate; 0.6 mg/kg i.v., 30 min)
-6.0%: Changes (%) of basal values, arterial mean blood pressure ([1]; 0.6 mg/kg i.v., imm.)
+1.5%: Changes (%) of basal values, aortic blood flow (aortic blood flow; 0.6 mg/kg i.v., imm.) | Changes(%) of basal values, coronary sinus oxygen tension ([2]; 2.0 mg/kg i.v., 1 min) | Changes(%) of basal values, heart rate (heart rate; 0.2 mg/kg i.v., imm.) | Changes(%) of basal values, heart rate (heart rate; 0.6 mg/kg i.v., imm.)
+4.0%: Changes(%) of basal values, coronary sinus out flow (coronary sinus out flow; 0.2 mg/kg i.v., imm.) | Changes(%) of basal values, coronary sinus out flow (coronary sinus out flow; 2.0 mg/kg i.v., 20 min)
-0.5%: Changes(%) of basal values, heart rate (heart rate; 0.6 mg/kg i.v., 5 min)
+11.0%: Changes (%) of basal values, aortic blood flow (aortic blood flow; 2.0 mg/kg i.v., 5 min)
-35.0%: Changes (%) of basal values, arterial mean blood pressure ([1]; 2.0 mg/kg i.v., 1 min)
+2.5%: Changes(%) of basal values, coronary sinus out flow (coronary sinus out flow; 0.6 mg/kg i.v., 1 min)
-1.0%: Changes (%) of basal values, arterial mean blood pressure ([1]; 0.2 mg/kg i.v., 1 min) | Changes (%) of basal values, arterial mean blood pressure ([1]; 0.6 mg/kg i.v., 10 min) | Changes (%) of basal values, arterial mean blood pressure ([1]; 2.0 mg/kg i.v., 10 min) | Changes (%) of basal values, arterial mean blood pressure ([1]; 2.0 mg/kg i.v., 20 min) | Changes (%) of basal values, aortic blood flow (aortic blood flow; 0.6 mg/kg i.v., 10 min) | Changes (%) of basal values, aortic blood flow (aortic blood flow; 0.6 mg/kg i.v., 20 min) | Changes(%) of basal values, heart rate (heart rate; 0.2 mg/kg i.v., 10 min) | Changes(%) of basal values, heart rate (heart rate; 0.6 mg/kg i.v., 20 min)
depressant effect on the heart: depressant effect on the heart (coronary blood flow)
+9.0%: Changes(%) of basal values, coronary sinus out flow (coronary sinus out flow; 2.0 mg/kg i.v., 10 min) | Changes(%) of basal values, coronary sinus oxygen tension ([2]; 0.6 mg/kg i.v., imm.)
3-5%: minimum increase in oxygen tension ([2]; until after 5-20 minutes, i.v.)
-2.0%: Changes (%) of basal values, arterial mean blood pressure ([1]; 0.2 mg/kg i.v., 5 min) | Changes (%) of basal values, arterial mean blood pressure ([1]; 0.6 mg/kg i.v., 1 min) | Changes (%) of basal values, arterial mean blood pressure ([1]; 2.0 mg/kg i.v., 5 min) | Changes (%) of basal values, arterial mean blood pressure ([1]; 2.0 mg/kg i.v., 30 min) | Changes(%) of basal values, heart rate (heart rate; 2.0 mg/kg i.v., 1 min) | Changes(%) of basal values, heart rate (heart rate; 2.0 mg/kg i.v., 5 min)
-78.0%: Changes (%) of basal values, aortic blood flow (aortic blood flow; 2.0 mg/kg i.v., imm.)
-1.5%: Changes (%) of basal values, arterial mean blood pressure ([1]; 0.2 mg/kg i.v., 10 min) | Changes (%) of basal values, arterial mean blood pressure ([1]; 0.6 mg/kg i.v., 5 min) | Changes(%) of basal values, heart rate (heart rate; 0.2 mg/kg i.v., 5 min) | Changes(%) of basal values, heart rate (heart rate; 2.0 mg/kg i.v., 10 min) | Changes(%) of basal values, heart rate (heart rate; 2.0 mg/kg i.v., 20 min) | Changes(%) of basal values, heart rate (heart rate; 2.0 mg/kg i.v., 30 min)
+5.0%: Changes (%) of basal values, aortic blood flow (aortic blood flow; 2.0 mg/kg i.v., 20 min) | Changes (%) of basal values, aortic blood flow (aortic blood flow; 2.0 mg/kg i.v., 30 min) | Changes(%) of basal values, coronary sinus oxygen tension ([2]; 2.0 mg/kg i.v., 10 min)
+23.0%: Changes (%) of basal values, aortic blood flow (aortic blood flow; 2.0 mg/kg i.v., 10 min)
+2.0%: Changes(%) of basal values, coronary sinus oxygen tension ([2]; 2.0 mg/kg i.v., 5 min)
+0.5%: Changes (%) of basal values, aortic blood flow (aortic blood flow; 0.6 mg/kg i.v., 1 min) | Changes(%) of basal values, coronary sinus out flow (coronary sinus out flow; 0.6 mg/kg i.v., 5 min) | Changes(%) of basal values, heart rate (heart rate; 0.6 mg/kg i.v., 1 min)
+6.0%: Changes(%) of basal values, coronary sinus out flow (coronary sinus out flow; 0.6 mg/kg i.v., imm.)
